The values below come from patent US11633370B2, “Use of scavengers of reactive gamma-ketoaldehydes to extend cell lifespan and healthspan” (Vanderbilt University, priority 2016, dated 2023).

Data set [1] deals with N2 WT C. elegans. Kind of data set: Longevity assay, wild-type N2 worms. Particulars: for increase in median lifespan: continuous from Day 1 of adulthood until natural death, versus 16 days; for median lifespan: control 16 days. The format is in vivo. The protocol:
(§1) C. elegans strains were cultured at 20° C. on standard nematode growth media (NGM) agar plates seeded with Escherichia coli strain NA22. The following strains were used in this work: wild-type C. elegans Bristol strain (N2), sir-2.1(ok434) IV, F19F10.5(ok888) V, and daf-16(mu86). Strains were obtained from the Caenorhabditis Genetics Center (University of Minnesota, St. Paul, Minn.). For generating cultures of 15-day-old (Day 15) adult worms, synchronized late-stage L4s/early young adult worms were transferred to peptone enriched 15 cm plates containing UV-irradiated OP50 E. coli and 0.12 mM 5-fluoro-2′-deoxyuridine (FUDR) to inhibit progeny production[88] with or without drug until harvest.
Nematodes grown on NGM-agar plates containing 0.5% peptone, were harvested, and eggs were isolated by alkaline hypochlorite with 0.5 N NaOH, 1% hypochlorite; 8 min at 23° C. The recovered eggs were rinsed in M9 buffer and placed on fresh agar plates seeded with E. coli strain OP50 and maintained at 20° C. until late-L4/young adult stage. After the late L4/young adult molt, worms were transferred to peptone enriched 15 cm plates containing 0.12 mM FUDR, OP50 E. coli, and varying concentrations of SA. Salicylamine drug plates were made fresh before transfer by spreading SA on top of the agar and plates were allowed to dry. E. coli strain OP50 was exposed to UV radiation for 30 minutes to kill the bacteria before seeding onto the SA-FUDR NGM agar plates. Worms were exposed to SA throughout its life until harvest by transferring worms to fresh SA-FUDR-OP50 NGM plates every other day.
Survival cultures were grown on 60-mm agar plates; after the late-stage L4/young adult molt, approximately 100 adults were transferred onto SA-OP50-seeded NGM plates. Salicylamine drug plates were made fresh before transfer by spreading SA on top of the agar. Plates were allowed to dry before seeding with UV-irradiated OP50 bacteria. Worms were maintained at 20° C. and live worms were counted during transfer to freshly made SA-OP50-NGM agar plates every 2-3 days. Survival was scored as movement upon slight touch with the platinum wire. Worms were maintained until death.

A further data set relates to daf-16(mu86). The data set is described as follows: Longevity assay, daf-16 gene knockout mutant strain. The format is in vivo, C. elegans. Particulars: SA from day 1 of adulthood; P<0.01 versus vehicle control. The protocol:
as §1
Survival cultures were grown on 60-mm agar plates; after the late-stage L4/young adult molt, approximately 100 adults were transferred onto SA-OP50-seeded NGM plates. Salicylamine drug plates were made fresh before transfer by spreading SA on top of the agar. […] Worms were maintained at 20° C. and live worms were counted during transfer to freshly made SA-OP50-NGM agar plates every 2-3 days. Survival was scored as movement upon slight touch with the platinum wire. […]
FIG. 7 (S1). […] Survival was assessed every 2 days until all the worms died. […] Data are expressed as means±SEM from four independent experiments. *P<0.01 as compared to vehicle control.

Data set [2] relates to N2 WT C. elegans. Kind of data set: Lipofuscin autofluorescence measurement, N2. The format is in vivo. Particulars: 100 μM or 500 μM SA versus vehicle control; p<0.01. From the text:
To quantify this, the present inventors chose both a biochemical endpoint (lipofuscin autofluorescence) and a behavioral measure (pharyngeal pumping) that change predictably with aging and are associated with healthspan. The accumulation in the nematode intestinal epithelium of autofluorescent lipofuscin granules, a heterogeneous mixture of oxidized and crosslinked lipids and proteins and advanced glycation end products, is a known conserved phenomenon observed to increase with age. Visualization of lipofuscin granules is often used as an age-related assessment of healthspan. Lipofuscin autofluorescence were quantified over time (every 5 days) in N2 adult nematodes (10-20 per colony) in the presence of increasing doses of SA. SA response profiles were generated from integrating the area-under-the-curve (AUC) of fluorescent intensity as a function of time (FIG. 1C). […] For a behavioral/functional measurement of health, pharyngeal pumping rates were quantified. […] Pharyngeal pumping rates quantified in WT N2 worms established on OP50-seeded NGM agar plates with increasing concentrations of SA. The frequency of pharyngeal pumping was measured and recorded every fifth day as the animals aged.
Synchronized late L4/early young adult worms were plated on FUDR containing SA-OP50-seeded NGM plates and worms were maintained at 20° C. […] The fluorescence was calculated using ImageJ software.

Data set [3] has as its system N2 WT C. elegans. The data set is described as follows: Oxygen consumption rate of whole worms, N2. The format is in vivo. Particulars: whole worms over several days; p>0.05. The text has this: (§2) Mitochondria lie at the center of aging biology, playing crucial roles in energy production, carbon substrate metabolism, apoptosis regulation, and redox balance and signaling. Since sirtuins play a major role in regulating mitochondrial function, the present inventors next wanted to investigate whether SA was exerting any of its effects via protection of mitochondrial processes. To investigate SA's effects on mitochondrial respiration, the present inventors administered SA to WT N2 (FIG. 5A) and non-functional SIR-2.1 mutant worms (FIG. 5B) and measured oxygen consumption rate (OCR) in whole worms over several days. […] The present inventors also examined the effect of SA treatment on mitochondrial DNA (mtDNA) integrity.
(§3) Oxygen consumption rate for whole C. elegans was measured using a Seahorse Bioscience XF^e96 Analyzer. Worms were harvested from Day 0, 2, and 15 colonies maintained on FUDR containing SA-OP50-seeded NGM plates by washing in M9 medium, followed by floatation on an ice-cold 60% w/v sucrose gradient to segregate clean bacteria-free adult worms from bacterial debris. Worms were seeded at 1,000 worms/well in M9. After 20 min equilibration, a 2-min measurement was performed to obtain basal OCR for all experimental conditions and strains.

The next data set relates to VC199 SIR-2.1 mutants. The data set is described as follows: Oxygen consumption rate of whole worms, VC199. It counts as in vivo, C. elegans. As to conditions: whole worms over several days; p>0.05.
Text: as §2, §3

The subject of data set [4] is intact cells exposed to hydrogen peroxide. As to conditions: SA pre-treatment, vehicle control 95% cell death; cited from earlier work.
For data set [5] the following is noted: in vivo; cited from earlier work.
Data set [6] deals with mice. Particulars: administering SA in mice; cited from earlier work.
Data set [7] relates to mice. As to conditions: cited from earlier work.
The conditions of data set [8]: compared with pyridoxamine (PM); cited from earlier work.

For `NCc1ccccc1O` [SA, salicylamine], the “increase in median lifespan” value in the data set on N2 WT C. elegans [1] (50 μM SA) is reported as 18%; in the data set with N2 WT C. elegans [1] (100 μM SA, p<0.05) it was 32%; in the data set with N2 WT C. elegans [1] (500 μM SA, p<0.01), 56%. The median lifespan in the data set on N2 WT C. elegans [1] (50 μM SA) turned out to be 19 days; with N2 WT C. elegans [1] (100 μM SA), 21 days; in the data set on N2 WT C. elegans [1] (500 μM SA) it was 25 days. Further, the “maximum and median lifespan” value in the data set with daf-16(mu86) is “increased maximum and median lifespan”. For the same molecule, in the data set with N2 WT C. elegans [2], the “age-associated lipofuscin accumulation (AUC of autofluorescence over time)” value was “significant reduction”. The “mitochondrial oxygen consumption rate (OCR)” value in the data set on N2 WT C. elegans [3] and in the data set on VC199 SIR-2.1 mutants was “no effect” in each case. In addition, the “occurrence in cell death” value in [4] is 5%. For the same molecule, the oral bioavailability result in [5] is reported as “orally bioavailable”. Moreover, the “age-related loss of working memory” value with mice [6] is recorded as “prevents the age-related loss of working memory”. In the data set on mice [7] (approximately one year, via drinking water), the “tolerability, adverse events” value is “no evidence of intolerance and no evidence of excess adverse events”. Besides, the tumor formation result in the data set with mice [7] (long-term SA treatment) was “No excess tumor formation”. In data set [8], the “potency and selectivity for scavenging isoketals” value is “similarly potent and as selective as PM”.
